From patent US10160764B2 (priority 2016, dated 2018)
pEC50: −log10 of the molar value.

Molecular target: influenza virus minigenome (PB2, PB1, PA, NP, Luciferase reporter), Hubei (Influenza A virus, UniProt A0A1L2FNK2)
Format: cell-based
Conditions: read-out: RNP_Hubei EC50

Question: How did the pEC50 turn out when O=C1c2c(O)c(=O)cnn2[C@@H]([C@@H](c2cccc(F)c2)c2ccc(F)c(F)c2)[C@H]2CCCN12 [Example 34, (9aR,10S)-10-((S)-(3,4-difluorophenyl)(3-fluorophenyl)methyl)-4-hydroxy-8,9,9a,10-tetrahydro-7H-pyrrolo[1′,2′:4,5]pyrazino[1,2-b]pyridazine-3,5-dione] was run?
Answer: Its pEC50 is 7.37.
